Test results reported in patent US20090232913A1, “Composition for the Control of Cholesterol Levels” (priority 2005, published 2009).
Entries after “also recorded” stand apart in the source; their conditions may differ.

Legend:
diabetic rats [1] = test: Serum cholesterol concentrations after 7 day oral treatment of diabetic rats (lovastatin, MKH, combination); type: in vivo; settings: for Effect on total cholesterol: 7 day oral dosage; for Effect on HDL levels: 7 days, MKH at 2 mg/kg
Source text: This is significant as HDLs are protective against heart disease (Despres et al., 2000, Atherosclerosis 153: 263-272). […] This is important as low LDL levels are associated with decreased risk of heart disease.

diabetic rats [2] = test: Serum cholesterol and lipid profile in diabetic rats after 5 days treatment; type: in vivo, Wistar rats; settings: for Effect on LDL cholesterol levels: treatment for 5 days
Protocol: In this study white, adult male Wistar rats with average weights between 200 to 300 grams were used. During the study, the animals had free access to food and water and were exposed to changes of dark and light every 12 hours. Access to the food was restricted 12 hours before measurement of glucose blood level with free access to water. The experiment was performed on a normoglycaemic group (Group 1, 32 rats, 8 per treatment) and diabetic rats (Group 2, 32 rats, 8 per treatment). For the diabetic rat experiments diabetes was induced with intraperitoneal injection of alloxan 100 mg/kg. Alloxan is very well verified diabetogenic substance for inducing diabetes in rats and other animal species (rabbit, dog, mice et […]). See, for example, […]. Coil Physicians Edinb, 32: 134-142, 2002; […], Diabetologia, 31: 337-342, 1988; Shaw et al., Lancet, 11: 384-386, 1943; Goldner & Gomori, Endocrinology, 35: 241-268, 1943. 1). Saline solution, 1 ml/kg, per orally, daily for 5 days (control group); 2). Stevioside, 20 mg/kg, orally, daily for 5 days; 3). […] In the diabetic rat the criterion for successful diabetes induction was blood glucose greater than 20 mmol/L on the third day after the last alloxan dose after 3 hours of fasting with free access to water. 15 minutes after the 5th dose, the animals were exposed to an oral glucose tolerance test (OGTT) using 4 g/kg, orally. Glucose blood concentrations were measured before the treatment, after the 5th dose, before OGTT, and 30 minutes after OGTT. Then the animals were anaesthetised with urethane injected intraperitoneally, 750 mg/kg, and blood samples for further biochemical analyses were taken by cardiopunction. All biochemical analyses of serum were done by standard procedures, as recommended by the International Federation for Clinical Chemistry (IFCC), on automatic spectrophotometer LISA 300 plus with International Quality Control. The following were measured in serum: 1). Triglycerides concentration (GPO-PAP kit obtained from Boehringer Mannheim GmbH (Mannheim, Germany) in accordance with the manufacturers instructions) 2). […] C-peptide concentration. […] Generally the desired outcome was a decrease in low density lipoprotein (LDL), with no concomitant decrease in high density lipoprotein (HDL). It was also hypothesised that there would be a compatibility with glycaemic effects shown in Example 2. The experimental procedures were essentially those described in Example 2.

diabetic Wistar rats = test: Blood glucose and OGTT in alloxan-induced diabetic rats; type: in vivo; settings: 5 days oral treatment
Protocol: In this study white, adult male Wistar rats with average weights between 200 to 300 grams were used. During the study, the animals had free access to food and water and were exposed to changes of dark and light every 12 hours. Access to the food was restricted 12 hours before measurement of glucose blood level with free access to water. The experiment was performed on a normoglycaemic group (Group 1, 32 rats, 8 per treatment) and diabetic rats (Group 2, 32 rats, 8 per treatment). For the diabetic rat experiments diabetes was induced with intraperitoneal injection of alloxan 100 mg/kg. Alloxan is very well verified diabetogenic substance for inducing diabetes in rats and other animal species (rabbit, dog, mice et […]). See, for example, […]. Coil Physicians Edinb, 32: 134-142, 2002; […], Diabetologia, 31: 337-342, 1988; Shaw et al., Lancet, 11: 384-386, 1943; Goldner & Gomori, Endocrinology, 35: 241-268, 1943. 1). Saline solution, 1 ml/kg, per orally, daily for 5 days (control group); 2). Stevioside, 20 mg/kg, orally, daily for 5 days; 3). […] In the diabetic rat the criterion for successful diabetes induction was blood glucose greater than 20 mmol/L on the third day after the last alloxan dose after 3 hours of fasting with free access to water. […] Glucose blood concentrations were measured before the treatment, after the 5th dose, before OGTT, and 30 minutes after OGTT. […]

normoglycaemic rats [3] = test: Serum cholesterol and lipid profile in normoglycaemic rats after 5 days treatment; type: in vivo, Wistar rats; settings: for Changes in HDL serum cholesterol concentrations / Changes in total cholesterol in serum concentrations / LDL serum cholesterol concentrations relative to control values: normoglycaemic / non-diabetic rats, 5 days treatment
Protocol: In this study white, adult male Wistar rats with average weights between 200 to 300 grams were used. During the study, the animals had free access to food and water and were exposed to changes of dark and light every 12 hours. Access to the food was restricted 12 hours before measurement of glucose blood level with free access to water. The experiment was performed on a normoglycaemic group (Group 1, 32 rats, 8 per treatment) and diabetic rats (Group 2, 32 rats, 8 per treatment). For the diabetic rat experiments diabetes was induced with intraperitoneal injection of alloxan 100 mg/kg. Alloxan is very well verified diabetogenic substance for inducing diabetes in rats and other animal species (rabbit, dog, mice et […]). See, for example, […]. Coil Physicians Edinb, 32: 134-142, 2002; […], Diabetologia, 31: 337-342, 1988; Shaw et al., Lancet, 11: 384-386, 1943; Goldner & Gomori, Endocrinology, 35: 241-268, 1943. 1). Saline solution, 1 ml/kg, per orally, daily for 5 days (control group); 2). Stevioside, 20 mg/kg, orally, daily for 5 days; 3). […] 15 minutes after the 5th dose, the animals were exposed to an oral glucose tolerance test (OGTT) using 4 g/kg, orally. Glucose blood concentrations were measured before the treatment, after the 5th dose, before OGTT, and 30 minutes after OGTT. Then the animals were anaesthetised with urethane injected intraperitoneally, 750 mg/kg, and blood samples for further biochemical analyses were taken by cardiopunction. All biochemical analyses of serum were done by standard procedures, as recommended by the International Federation for Clinical Chemistry (IFCC), on automatic spectrophotometer LISA 300 plus with International Quality Control. The following were measured in serum: 1). Triglycerides concentration (GPO-PAP kit obtained from Boehringer Mannheim GmbH (Mannheim, Germany) in accordance with the manufacturers instructions) 2). […] C-peptide concentration. […] Generally the desired outcome was a decrease in low density lipoprotein (LDL), with no concomitant decrease in high density lipoprotein (HDL). It was also hypothesised that there would be a compatibility with glycaemic effects shown in Example 2. The experimental procedures were essentially those described in Example 2.

normoglycaemic rats [4] = test: C peptide serum concentration in normoglycaemic rats; type: in vivo, Wistar rats; settings: non-diabetic rats; treatment for 5 days
Protocol: In this study white, adult male Wistar rats with average weights between 200 to 300 grams were used. During the study, the animals had free access to food and water and were exposed to changes of dark and light every 12 hours. Access to the food was restricted 12 hours before measurement of glucose blood level with free access to water. The experiment was performed on a normoglycaemic group (Group 1, 32 rats, 8 per treatment) and diabetic rats (Group 2, 32 rats, 8 per treatment). For the diabetic rat experiments diabetes was induced with intraperitoneal injection of alloxan 100 mg/kg. Alloxan is very well verified diabetogenic substance for inducing diabetes in rats and other animal species (rabbit, dog, mice et […]). See, for example, […]. Coil Physicians Edinb, 32: 134-142, 2002; […], Diabetologia, 31: 337-342, 1988; Shaw et al., Lancet, 11: 384-386, 1943; Goldner & Gomori, Endocrinology, 35: 241-268, 1943. 1). Saline solution, 1 ml/kg, per orally, daily for 5 days (control group); 2). Stevioside, 20 mg/kg, orally, daily for 5 days; 3). […] 15 minutes after the 5th dose, the animals were exposed to an oral glucose tolerance test (OGTT) using 4 g/kg, orally. Glucose blood concentrations were measured before the treatment, after the 5th dose, before OGTT, and 30 minutes after OGTT. […] The following were measured in serum: 1). […]

diabetic rats [5] = test: C peptide serum concentration in diabetic rats; type: in vivo, Wistar rats; settings: treatment for 5 days
Protocol: In this study white, adult male Wistar rats with average weights between 200 to 300 grams were used. During the study, the animals had free access to food and water and were exposed to changes of dark and light every 12 hours. Access to the food was restricted 12 hours before measurement of glucose blood level with free access to water. The experiment was performed on a normoglycaemic group (Group 1, 32 rats, 8 per treatment) and diabetic rats (Group 2, 32 rats, 8 per treatment). For the diabetic rat experiments diabetes was induced with intraperitoneal injection of alloxan 100 mg/kg. Alloxan is very well verified diabetogenic substance for inducing diabetes in rats and other animal species (rabbit, dog, mice et […]). See, for example, […]. Coil Physicians Edinb, 32: 134-142, 2002; […], Diabetologia, 31: 337-342, 1988; Shaw et al., Lancet, 11: 384-386, 1943; Goldner & Gomori, Endocrinology, 35: 241-268, 1943. 1). Saline solution, 1 ml/kg, per orally, daily for 5 days (control group); 2). Stevioside, 20 mg/kg, orally, daily for 5 days; 3). […] Glucose blood concentrations were measured before the treatment, after the 5th dose, before OGTT, and 30 minutes after OGTT. […] The following were measured in serum: 1). […]

SMILES	Effect on total cholesterol (diabetic rats [1])	Effect on HDL levels (diabetic rats [1]; Lovastatin 20 mg/kg)	Changes in total cholesterol in serum concentrations (diabetic rats [2]; 5 days treatment)	Effect on LDL:HDL ratio (diabetic rats [2]; 5 days treatment)	Effect on HDL levels (diabetic rats [2]; 5 days, MKH at 4 mg/kg)	LDL: HDL Ratio (ratios of means) (diabetic rats [2]; n = 8, after 5 days treatment)	Effect on LDL cholesterol levels (diabetic rats [2])	Effect on glucose levels both before and after the OGTT (diabetic Wistar rats)	Effect on LDL levels (diabetic rats [1]; 7 days oral treatment, MKH 2 mg/kg, Lovastatin 20 mg/kg)	Effect on LDL:HDL ratio (diabetic rats [1]; by Day 7)	Changes in HDL serum cholesterol concentrations (normoglycaemic rats [3])	Changes in total cholesterol in serum concentrations (normoglycaemic rats [3])	LDL serum cholesterol concentrations relative to control values (normoglycaemic rats [3])	LDL: HDL Ratio (ratios of means) (normoglycaemic rats [3]; normoglycaemic rats, n = 8, after 5 days treatment)	Effect on C peptide levels (normoglycaemic rats [4])	Effect on C-peptide (diabetic rats [5])
CC[C@H](C)C(=O)O[C@H]1C[C@@H](C)C=C2C=C[C@H](C)[C@H](CC[C@@H]3C[C@@H](O)CC(=O)O3)[C@H]21 [Lovastatin, reference compound]	reduced total cholesterol by a similar amount	reduced HDLs significantly														
C[C@H](CCC(=O)O)[C@H]1CC[C@H]2[C@@H]3[C@H](O)C[C@@H]4C[C@H](O)CC[C@]4(C)[C@H]3CC(=O)[C@]12C [MKH, 3α,7α-dihydroxy-12-oxo-5β-cholanate]	reduced total cholesterol by a similar amount	this effect was not observed; also recorded: did not do so	no significant changes	slight increase in LDL:HDL ratio	A decrease was observed	1.12	decreases in LDL levels and while these were not statistically significant	significant decrease in glucose levels	very highly significant decrease in LDL levels; also recorded: significantly greater than that achieved by Lovastatin	significant decrease in the LDL:HDL ratio	no significant changes	no significant changes	significantly decreased (one third of control values)	0.01	Neither stevioside or 3α,7α-dihydroxy-12-oxo-5β-cholanate alone had statistically significant effects	
C=C1C[C@@]23CC[C@H]4[C@@](C)(CCC[C@@]4(C)C(=O)O[C@@H]4O[C@H](CO)[C@@H](O)[C@H](O)[C@H]4O)[C@@H]2CC[C@]1(O[C@@H]1O[C@H](CO)[C@@H](O)[C@H](O)[C@H]1O[C@@H]1O[C@H](CO)[C@@H](O)[C@H](O)[C@H]1O)C3 [Stevioside, stevioside]			no significant changes				highly significant decrease in LDL cholesterol levels				no significant changes	no significant changes	significantly decreased (one third of control values)		Neither stevioside or 3α,7α-dihydroxy-12-oxo-5β-cholanate alone had statistically significant effects	significant increases in C-peptide
